Holding throughout (assay): Antimicrobial and disinfecting properties test (liquid medium dilution series, visual turbidity)
What all share (type): cell-based
Common to all, as to conditions: 37° C., 16 hours

For experiment [1], the system named is A. baumannii (OXA-23 producing strain, ST2). The method, then:
(§1) Into 500 mL of hexane, 10 g of the polymer obtained in each of the above Synthesis Examples was added dropwise over 2 hours, and then vacuum drying was performed at 40° C. for 24 hours. The powder thus obtained was used for a test.
(§2) 30.4 g of a medium (Mueller Hinton II) was weighed out, and dissolved in 800 mL of sterile water, and the resultant mixture was subjected to an autoclave treatment at 121° C. and 2 atm for 15 minutes.
(§3) Each of the bacteria of the following (1) to (8) was suspended in 1 mL of the liquid medium obtained in the above “preparation of liquid medium”, OD600 was measured, and a liquid medium was added so that the amount of bacteria is 1×10^8 cfu/mL to prepare each of the bacterial liquids.
(6) A. baumannii (OXA-23 producing strain, ST2)
(§4) A polymer (A-1) and water were mixed to prepare 10 mg/mL of a polymer aqueous solution. […]
(§5) The turbidity of each of the wells was visually discriminated and the growing state of the bacteria was confirmed. The concentrations of the dilution series, at which it was visually determined that the antimicrobial action and disinfecting action were performed without cloudiness, are shown in Table 3.
(§6) The antimicrobial and the disinfecting properties were evaluated in a similar manner as in Example 1 except that each of the compounds shown in Table 3 was used in place of the polymer (A-1) in Example 1. […]

The subject of experiment [2] is E. coli (drug sensitive strain, DH5α). The method, then: as §1, §2, §3
(1) E. coli (drug sensitive strain, DH5α)
as §4, §5, §6

Experiment [3] concerns Klebsiella pneumoniae (KPC-2 producing strain, ST258).
Experiment [4] concerns E. coli (IMP-1 producing strain, ST131). The method, then:
as §1, §2, §3
(4) E. coli (IMP-1 producing strain, ST131)
as §4, §5, §6

Experiment [5] deals with Pseudomonas aeruginosa (MP-1 producing strain, ST235). The method, then:
as §1, §2, §3
(7) Pseudomonas aeruginosa (MP-1 producing strain, ST235)
as §4, §5, §6

The test system of experiment [6] is E. coli (NDM-1 producing strain). The method, then: as §1, §2, §3
(3) E. coli (NDM-1 producing strain)
as §4, §5, §6

Experiment [7] deals with MRSA (S. aureus methicillin-resistant strain). The method, then:
as §1, §2, §3
(8) MRSA (S. aureus methicillin-resistant strain)
as §4, §5, §6

Experiment [8] concerns S. aureus (drug sensitive strain, ATCC29213). The method, then:
as §1, §2, §3
(2) S. aureus (drug sensitive strain, ATCC29213)
as §4, §5, §6

Regarding `N=C(N)NC(N)=Nc1ccccc1` [Phenyl biguanide, phenyl biguanide], the “concentration of the dilution series at which antimicrobial and disinfecting action was visually determined without cloudiness” value in experiment [1] is 1024 µg/mL; in experiment [2], greater than 1024 µg/mL; in experiment [3] it was greater than 1024 µg/mL; in experiment [4], 1024 µg/mL; in experiment [5], greater than 1024 µg/mL; in experiment [6] it was 1024 µg/mL. For the same compound, the “concentration of the dilution series at which antimicrobial and disinfecting action was visually determined without cloudiness” value in experiment [7] and in experiment [8] was greater than 1024 µg/mL each time.

The values above are taken from patent publication US11384172B2, “Polymer, antimicrobial agent, disinfectant, antimicrobial material, disinfectant material, antimicrobial method, and disinfecting method” (JSR CORPORATION, priority 2015, dated 2022).
